Source: ChEMBL document CHEMBL1201862, “PubChem BioAssay data set” (2004)
Calls of active or inactive are those of the source.

Legend:
[1] = A549 cell cytotoxicity, dose response, cytotoxicity control, plate reader, cherry-pick, antagonist series (AID 743412); type: functional, cell-based
[2] = NIH:OVCAR-3 ovarian cancer cell cytotoxicity, dose response, PAX8 inhibitor project, plate reader, dry powder samples (AID 743044); type: functional, cell-based
[3] = cytotoxicity in OVCAR8 ovarian cancer cells, dose response, PAX8 project, cell-based, plate reader, dry powder samples (AID 743197); type: functional; conditions: OVCAR-8
[4] = IOSE-T80 ovarian epithelial cell cytotoxicity, dose response, cytotoxicity control for PAX8 inhibitor project, plate reader, dry powder samples (AID 743045); type: functional, cell-based
[5] = IGROV1 ovarian cancer cell cytotoxicity, dose response, PAX8 inhibitor project, plate reader, dry powder samples (AID 743043); type: functional, cell-based; conditions: IGROV-1
[6] = HEK293 cell cytotoxicity, dose response, cytotoxicity control, plate reader, cherry-picked samples (AID 743446); type: functional, cell-based
Paired box protein Pax-8 = Paired box protein Pax-8 (Homo sapiens, UniProt Q06710); test: inhibitors of PAX8-driven TPO luciferase reporter, dose response, RMG-I cells, cherry-pick (AID 687027); type: functional, cell-based;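 note: luciferase reporter driven by Pax8 target thyroperoxidase promoter measured by SteadyGlo luminescence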
Sequence of Paired box protein Pax-8 (Q06710 whole entry): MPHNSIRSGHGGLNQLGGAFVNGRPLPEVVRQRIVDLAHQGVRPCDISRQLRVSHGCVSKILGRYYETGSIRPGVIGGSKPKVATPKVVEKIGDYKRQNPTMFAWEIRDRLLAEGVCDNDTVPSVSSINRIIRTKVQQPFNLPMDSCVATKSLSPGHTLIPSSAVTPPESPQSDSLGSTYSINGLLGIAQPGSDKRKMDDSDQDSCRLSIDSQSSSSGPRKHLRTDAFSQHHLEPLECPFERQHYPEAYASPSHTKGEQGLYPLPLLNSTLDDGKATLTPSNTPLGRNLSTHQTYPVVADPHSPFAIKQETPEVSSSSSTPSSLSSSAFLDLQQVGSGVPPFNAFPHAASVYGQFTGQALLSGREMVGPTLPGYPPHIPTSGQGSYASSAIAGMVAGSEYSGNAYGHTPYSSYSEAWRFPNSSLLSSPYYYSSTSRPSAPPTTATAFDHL

[7] = P. falciparum Dd2 growth inhibitors, dose response, SYBR Green, cherry-picked samples (AID 1159567); type: functional, cell-based
[8] = LGR2 antagonists, dose response, cell-based, HEK293, CRE-luciferase reporter, cherry pick, set 2 (AID 743343); type: functional;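 note: transfected cells were stimulated with diluted bursicon conditioned medium after compound addition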
[9] = MC4R antagonists, dose response, counter-screen for LGR2 antagonist project, cell-based, plate reader, cherry pick (AID 743444); type: functional;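 note: transfected HEK 293 cells stimulated with alpha-MSH peptide; potency of inhibitors of the alpha-MSH evoked signal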
[10] = HepG2 cell cytotoxicity, dose response, cytotoxicity control, plate reader, cherry-pick, antagonist series (AID 743416); type: functional, cell-based
[11] = T. cruzi growth inhibition in host cells, dose response, cell-based, plate reader, dry powder, set 2 (AID 652275); type: functional
[12] = NIH/3T3 fibroblast cytotoxicity, dose response, cytotoxicity control, cell-based, plate reader, dry powder, set 2 (AID 652280); type: functional; conditions: NIH3T3
[13] = T. cruzi intracellular amastigote growth inhibition, dose response, imaging, CA-I/72 strain, bovine embryo skeletal muscle, dry powder (AID 651885); type: functional, cell-based
[14] = inhibitors of fibronectin matrix deposition, dose response, AH1F cells, Alexa488-FN fluorescence, cherry-picks (AID 1035475); type: functional, cell-based
[15] = HEK293 cell cytotoxicity, dose response, cytotoxicity control, cherry-picks, set 5 (AID 1053117); type: functional, cell-based
[16] = HepG2 cell cytotoxicity, dose response, cytotoxicity control, cherry-picked samples (AID 1159577); type: functional, cell-based
[17] = HepG2 cell cytotoxicity, dose response, cytotoxicity control, cherry-picks, set 5 (AID 1053118); type: functional, cell-based
[18] = A549 cell cytotoxicity, dose response, cytotoxicity control, cherry-picks, 26 µM top dose (AID 1053119); type: functional, cell-based
[19] = HepG2 cell cytotoxicity, dose response, cytotoxicity control, luminescence plate reader, powder samples, set 2 (AID 651860); type: functional, cell-based
[20] = HEK293T cell cytotoxicity, dose response, cytotoxicity control, luminescence plate reader, powder samples, set 4 (AID 651863); type: functional, cell-based; conditions: HEK293
[21] = inhibitors of non-replicating M. tuberculosis, dose response, luciferase, dry powder (AID 651619); type: functional; conditions: Mycobacterium tuberculosis
[22] = growth inhibition of replicating M. tuberculosis, dose response, counter-screen, dry powder, IC90 (AID 651617); type: functional; conditions: Mycobacterium tuberculosis
[23] = inhibitors of non-replicating M. tuberculosis, dose response, luciferase, dry powder (AID 651620); type: functional; conditions: Mycobacterium tuberculosis
[24] = Late stage assay provider results from the probe development effort to identify inhibitors of the Plasmodium falciparum M18 Aspartyl Aminopeptidase (M18AAP): radiolabel-based cell-based dose response assay to identify compounds that inhibit P. falciparum growth in RBCs, Set 2..; type: functional
Protein RecA = target: T1, Protein RecA (Mycobacterium tuberculosis, UniProt P9WHJ3); test: Fluorescence Cell-Free Homogeneous Dose Retest to Identify Inhibitors of RecA-Intein Splicing Activity. [Related pubchem assays (depositor defined):AID2097, AID2223, AID489010, AID492950]; type: functional
T1 sequence (P9WHJ3 whole entry): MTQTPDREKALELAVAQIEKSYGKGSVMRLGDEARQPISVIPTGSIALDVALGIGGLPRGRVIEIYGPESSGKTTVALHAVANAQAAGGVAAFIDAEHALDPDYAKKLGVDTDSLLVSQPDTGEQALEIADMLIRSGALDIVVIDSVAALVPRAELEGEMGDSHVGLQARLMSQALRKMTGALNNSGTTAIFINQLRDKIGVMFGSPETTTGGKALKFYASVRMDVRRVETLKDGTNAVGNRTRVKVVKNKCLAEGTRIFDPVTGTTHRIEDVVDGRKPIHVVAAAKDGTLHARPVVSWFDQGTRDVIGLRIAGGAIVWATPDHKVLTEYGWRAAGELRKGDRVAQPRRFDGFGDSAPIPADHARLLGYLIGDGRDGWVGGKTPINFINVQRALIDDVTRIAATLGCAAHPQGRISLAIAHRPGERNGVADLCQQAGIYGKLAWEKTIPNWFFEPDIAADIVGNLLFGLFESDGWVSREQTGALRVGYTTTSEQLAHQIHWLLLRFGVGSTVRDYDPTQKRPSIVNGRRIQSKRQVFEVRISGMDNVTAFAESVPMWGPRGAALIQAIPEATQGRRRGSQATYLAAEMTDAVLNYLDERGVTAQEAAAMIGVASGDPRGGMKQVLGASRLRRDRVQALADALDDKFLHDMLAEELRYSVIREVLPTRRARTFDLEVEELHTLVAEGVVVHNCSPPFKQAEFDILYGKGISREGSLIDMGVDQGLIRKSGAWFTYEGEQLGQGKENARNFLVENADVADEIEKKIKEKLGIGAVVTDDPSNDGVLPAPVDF

[25] = target: COUP transcription factor 2 (Homo sapiens, UniProt P24468); test: Luminescence-based cell-based high throughput dose response assay to identify inhibitors of COUP-TFII (NR2F2).; type: functional;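 note: HEK293 cells transiently cotransfected with COUP-TFII expression vector and reporter; luciferase reporter luminescence driven by COUP-TFII from the pX2-168 reporter plasmid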
Sequence of COUP transcription factor 2 (P24468 whole entry): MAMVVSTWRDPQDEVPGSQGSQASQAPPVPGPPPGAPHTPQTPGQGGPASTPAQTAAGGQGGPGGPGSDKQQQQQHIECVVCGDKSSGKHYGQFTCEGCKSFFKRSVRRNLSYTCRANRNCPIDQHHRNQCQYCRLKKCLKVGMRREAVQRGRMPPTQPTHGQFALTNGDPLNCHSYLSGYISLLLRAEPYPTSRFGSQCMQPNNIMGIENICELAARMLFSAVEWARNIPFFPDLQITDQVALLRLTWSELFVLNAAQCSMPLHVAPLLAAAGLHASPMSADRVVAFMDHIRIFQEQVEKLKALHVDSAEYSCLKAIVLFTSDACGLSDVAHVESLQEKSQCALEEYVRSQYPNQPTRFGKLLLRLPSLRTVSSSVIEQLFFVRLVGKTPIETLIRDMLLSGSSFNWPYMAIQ

[26] = HepG2 cell cytotoxicity, dose response, cytotoxicity control for Shn3 inhibitor project, CellTiter-Glo, cherry-picked (AID 624134); type: functional, cell-based
[27] = control 3'UTR Renilla luciferase suppression, dose response, counter-screen for Shn3 inhibitor project, cell-based, Clone20-Shn3RL, cherry-picked (AID 624133); type: functional
[28] = target: T2, Replicative DNA helicase DnaB (Mycobacterium tuberculosis, UniProt P9WMR3); test: DnaB intein splicing inhibitors, dose response, biochemical, cell-free fluorescence (AID 449749); type: functional
T2 sequence (P9WMR3 whole entry): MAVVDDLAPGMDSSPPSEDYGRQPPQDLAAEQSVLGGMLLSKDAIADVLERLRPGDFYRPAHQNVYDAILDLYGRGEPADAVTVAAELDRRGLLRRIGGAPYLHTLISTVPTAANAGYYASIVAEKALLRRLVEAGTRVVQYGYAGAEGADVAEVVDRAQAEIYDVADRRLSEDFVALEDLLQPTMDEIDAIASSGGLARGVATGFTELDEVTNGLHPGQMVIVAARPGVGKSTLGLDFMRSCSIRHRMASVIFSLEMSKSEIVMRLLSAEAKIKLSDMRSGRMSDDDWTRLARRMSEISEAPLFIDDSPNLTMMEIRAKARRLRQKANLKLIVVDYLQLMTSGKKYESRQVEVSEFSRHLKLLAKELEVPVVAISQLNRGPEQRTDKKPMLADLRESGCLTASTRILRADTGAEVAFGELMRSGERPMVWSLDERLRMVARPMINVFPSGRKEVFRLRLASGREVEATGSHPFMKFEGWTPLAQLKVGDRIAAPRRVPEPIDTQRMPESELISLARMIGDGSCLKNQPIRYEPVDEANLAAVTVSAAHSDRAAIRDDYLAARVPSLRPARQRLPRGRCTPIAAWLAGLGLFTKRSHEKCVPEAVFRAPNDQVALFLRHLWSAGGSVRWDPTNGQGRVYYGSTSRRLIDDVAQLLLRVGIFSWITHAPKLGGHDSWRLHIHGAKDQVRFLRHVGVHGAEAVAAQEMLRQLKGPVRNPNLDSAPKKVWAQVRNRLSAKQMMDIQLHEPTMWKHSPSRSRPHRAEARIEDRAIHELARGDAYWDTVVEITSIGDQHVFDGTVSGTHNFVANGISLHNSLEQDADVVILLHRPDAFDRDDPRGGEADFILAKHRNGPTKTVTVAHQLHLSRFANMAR

INS1 = test: beta cell apoptosis inhibitors, cytokine rescue, dose response, luminescence, retest (AID 449756); type: functional, cell-based; conditions: Rattus norvegicus;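 note: cell death triggered by IL-1 beta plus TNF-alpha plus IFN-gamma mixture; protective hits raise ATP signal compared with cytokine alone wells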
[29] = Shn3 3'UTR reporter inhibitors, dose response, cell-based, Clone20 osteoblasts, firefly luciferase, cherry-picked (AID 624132); type: functional;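 note: firefly luciferase luminescence from reporter carrying the Shn3 3'UTR in osteoblasts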

For `Cn1cnc(S(=O)(=O)N2C[C@@H]3N[C@H](C2)[C@@H]3c2ccc(-c3ccccc3F)cc2)c1`, the AC50 [1] was 11 µM (active), the AC50 [2] was 22 µM (active) and the AC50 [3] was 24.5 µM (active). The AC50 [4] was 25.9 µM (active), the AC50 [5] was 27.1 µM (active) and the AC50 [6] was > 52 µM (inactive). For the same compound, the AC50 (Paired box protein Pax-8) was 4.26 µM (active), the AC50 [7] was 3.72 µM (active) and the AC50 [8] was 18.9 µM (active). The AC50 [9] was 6.25 µM (active) and the AC50 [10] was 28.2 µM (active).

In the case of `C[C@H]1CN([C@@H](C)CO)C(=O)c2cccc(NC(=O)c3ccncc3)c2O[C@@H]1CN(C)Cc1ccc(Cl)c(Cl)c1`, the AC50 [11] was 0.00674 µM (active), the AC50 [12] was 13.2 µM (active) and the IC50 [13] was 0.00211 µM (active).

For `CO[C@H]1CN(C)C(=O)c2ccc(NC(=O)c3ccc(-c4ccccc4)cc3)cc2OC[C@@H](C)NC[C@@H]1C`, the AC50 [14] was > 70 µM (inactive), the AC50 [15] was 16.3 µM (active) and the AC50 [16] was 7.74 µM (active). For the same compound, the AC50 [17] was 10.9 µM (active), the AC50 [7] was 2.02 µM (active) and the AC50 [18] was 13.4 µM (active).

In the case of `Cc1ccc(S(=O)(=O)NC2=C/C(=N\[C@@H](C)C(=O)OC(C)(C)C)C(=O)c3ccccc32)c(C)c1`, the AC50 [19] was 43 µM (active) and the AC50 [20] was 16.3 µM (active).

With `Fc1ccc(Cn2cc(CSc3nnc(C4CCCC4)o3)nn2)cc1` the IC90 [21] was 2 µM (active), the IC90 [22] was 250 µM (active) and the IC90 [23] was 2 µM (active).

In the case of `Oc1ccc(CCCNc2c3ccccc3nc3ccccc23)cc1O`, the IC50 [24] was 3.7 µM (active).

For `Cc1cccc(Nc2nc(NCc3ccco3)c3ccccc3n2)c1`, the EC50 (Protein RecA) was 9.37 µM (active), the IC50 [25] was 8.5 µM (active) and the AC50 [26] was 13.1 µM (active). The AC50 [27] was 3.22 µM (active), the AC50 [28] was 5.65 µM (active) and the AC50 (INS1) was 2.09 µM (active). The AC50 [29] was 2.05 µM (active).
